Source: ChEMBL document CHEMBL1132426, “Inhibitors of the C(2)-symmetric HIV-1 protease: nonsymmetric binding of a symmetric cyclic sulfamide with ketoxime groups in the P2/P2' side chains” (J Med Chem, 1999)

target: Human immunodeficiency virus type 1 protease (Human immunodeficiency virus 1, UniProt Q72874); test: Inhibitory activity against HIV-1 Protease expressed in Escherichia coli

Point of comparison: `CC(=O)c1cccc(CN2[C@H](COc3ccccc3)[C@H](O)[C@@H](O)[C@@H](COc3ccccc3)N(Cc3cccc(C(C)=O)c3)S2(=O)=O)c1`, Ki 59 nM. Against it:
- COC(Cc1cccc(CN2[C@H](COc3ccccc3)[C@H](O)[C@@H](O)[C@@H](COc3ccccc3)N(Cc3cccc(CC(OC)OC)c3)S2(=O)=O)c1)OC — 9.2-fold higher, 540 nM
- C/C(=N/O)c1cccc(CN2[C@H](COc3ccccc3)[C@H](O)[C@@H](O)[C@@H](COc3ccccc3)N(Cc3cccc(/C(C)=N\O)c3)S2(=O)=O)c1 — 17-fold lower, 3.4 nM
- COC(=O)c1ccc(CN2[C@H](COc3ccccc3)[C@H](O)[C@@H](O)[C@@H](COc3ccccc3)N(Cc3ccc(C(=O)OC)cc3)S2(=O)=O)cc1 — within 1.5-fold, 84 nM
- O=S1(=O)N(Cc2cccc(CCO)c2)[C@H](COc2ccccc2)[C@H](O)[C@@H](O)[C@@H](COc2ccccc2)N1Cc1cccc(CCO)c1 — within 1.5-fold, 43 nM
- O=S1(=O)N(Cc2ccc(CO)cc2)[C@H](COc2ccccc2)[C@H](O)[C@@H](O)[C@@H](COc2ccccc2)N1Cc1ccc(CO)cc1 — 19-fold lower, 3.1 nM
